Source: patent US10829520B2, “Beta-hairpin peptidomimetics” (POLYPHOR AG, priority 2015, dated 2020)
Where a SMILES comes first, the peptide text is derived from it. Bridges are numbered along the chain shown (N, C = ends). [ ]: non-standard residue; d: D form. Tle = CC(C)(C)[C@H](N)C(=O)O; Nle = CCCC[C@H](N)C(=O)O; Orn = NCCC[C@H](N)C(=O)O; Dab = NCC[C@H](N)C(=O)O; Dap = NC[C@H](N)C(=O)O; Aib = CC(C)(N)C(=O)O

Columns and labels:
Assay type in all cases: cell-based
[1] = tested on: Klebsiella pneumoniae 968733; conditions: 968733
[2] = tested on: Pseudomonas aeruginosa ATCC 27853; conditions: ATCC 27853
How it was run: (§1)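 CLSI broth microdilution; MH-II (cation-adjusted) + 0.002% P-80; ~10^6 CFU/mL inoculum; peptide two-fold serial dilutions; 18-20 h, 35° C; MIC = no visible growth, μg/mL.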

Escherichia coli 926415 = conditions: 926415
[3] = tested on: Acinetobacter baumannii 872842; conditions: 872842
[4] = tested on: Acinetobacter baumannii DSM 30008; conditions: DSM 30008
How it was run: as §1

[5] = tested on: Klebsiella pneumoniae SSI #3010; conditions: SSI #3010
How it was run: as §1

[6] = tested on: Escherichia coli ATCC 25922; conditions: ATCC 25922
How it was run: as §1

[7] = tested on: human red blood cells (hRBC); assay: Hemolysis of human red blood cells; conditions: red cells of human, 1 h, 100 μg/mL
How it was run: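 Each peptide was tested at a single concentration, 100 μg/mL. Erythrocytes (20% v/v) were incubated 1 h at 37° C. under shaking at 300 rpm, centrifuged, and released hemoglobin measured at OD540. Controls were PBS containing 0.001% acetic acid (0%) and Triton X-100 (100%).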

| SMILES | Klebsiella pneumoniae 968733 MIC [1] | Pseudomonas aeruginosa ATCC 27853 MIC [2] | Escherichia coli 926415 MIC (Escherichia coli 926415) | Acinetobacter baumannii 872842 MIC [3] | Acinetobacter baumannii DSM 30008 MIC [4] | Klebsiella pneumoniae SSI #3010 MIC [5] | Escherichia coli ATCC 25922 MIC [6] | Hemolysis at 100 μg/mL [7] |
| --- | --- | --- | --- | --- | --- | --- | --- | --- |
| CCCC[C@@H]1NC(=O)[C@@H]2CCCN2C(=O)[C@H]2CCCN2C(=O)[C@H](CO)NC(=O)[C@H](C)NC(=O)[C@H](C(C)(C)C)NC(=O)[C@@H](NC(=O)[C@H](Cc2c[nH]c3ccccc23)NC(C)=O)CSSC[C@@H](C(=O)NC(C)(C)C(=O)N[C@@H](CCN)C(=O)N[C@H](C(=O)N[C@@H](CCN)C(=O)N[C@H]2CCNC(=O)[C@H]([C@@H](C)O)NC(=O)[C@H](CCN)NC(=O)[C@H](CCN)NC(=O)[C@H](CC(C)C)NC(=O)[C@@H](Cc3ccccc3)NC(=O)[C@H](CCN)NC2=O)[C@@H](C)O)NC(=O)[C@H](Cc2ccc(O)cc2)NC(=O)[C@H](CO)NC1=O [Ex. 30] (Ac-WC[Tle]AS[dP]P[Nle]SYC[Aib][Dab]T[Dab][Dab][Dab][dF]L[Dab][Dab]T; disulfide 2-11; lactam 16-C) | 0.25 µg/mL | 0.5 µg/mL | 1 µg/mL | 1 µg/mL | 0.25 µg/mL | 0.25 µg/mL | 0.25 µg/mL | <1% |
| CCCC[C@@H]1NC(=O)[C@@H]2CCCN2C(=O)[C@H]2CCCN2C(=O)[C@H](CO)NC(=O)[C@H](C)NC(=O)[C@H](C(C)(C)C)NC(=O)[C@@H](NC(=O)[C@H](Cc2c[nH]c3ccccc23)NC(C)=O)CSSC[C@@H](C(=O)N[C@@H](CCN)C(=O)NCC(=O)N[C@H](C(=O)N[C@@H](CCN)C(=O)N[C@H]2CCNC(=O)[C@H]([C@@H](C)O)NC(=O)[C@H](CCN)NC(=O)[C@H](CCN)NC(=O)[C@H](CC(C)C)NC(=O)[C@@H](Cc3ccccc3)NC(=O)[C@H](CCN)NC2=O)[C@@H](C)O)NC(=O)[C@H](Cc2ccc(O)cc2)NC(=O)[C@H](CO)NC1=O [Ex. 31] (Ac-WC[Tle]AS[dP]P[Nle]SYC[Dab]GT[Dab][Dab][Dab][dF]L[Dab][Dab]T; disulfide 2-11; lactam 16-C) | 0.75 µg/mL | 1 µg/mL | 1.5 µg/mL | 1 µg/mL | 0.125 µg/mL | 0.25 µg/mL | 0.5 µg/mL | 2% |
| CCCC[C@@H]1NC(=O)[C@@H]2CCCN2C(=O)[C@H]2CCCN2C(=O)[C@H](CO)NC(=O)[C@H](C)NC(=O)[C@H](C(C)(C)C)NC(=O)[C@@H](NC(=O)[C@H](Cc2c[nH]c3ccccc23)NC(C)=O)CSSC[C@@H](C(=O)N[C@@H](CCN)C(=O)N[C@H](C(=O)N[C@H](C)C(=O)N[C@@H](CCN)C(=O)N[C@H]2CCNC(=O)[C@H]([C@@H](C)O)NC(=O)[C@H](CCN)NC(=O)[C@H](CCN)NC(=O)[C@H](CC(C)C)NC(=O)[C@@H](Cc3ccccc3)NC(=O)[C@H](CCN)NC2=O)[C@@H](C)O)NC(=O)[C@H](Cc2ccc(O)cc2)NC(=O)[C@H](CO)NC1=O [Ex. 32] (Ac-WC[Tle]AS[dP]P[Nle]SYC[Dab]T[dA][Dab][Dab][Dab][dF]L[Dab][Dab]T; disulfide 2-11; lactam 16-C) | 1 µg/mL | 0.25 µg/mL | 0.5 µg/mL | 0.25 µg/mL | 0.125 µg/mL | 0.25 µg/mL | 0.125 µg/mL | 2% |
| CCCC[C@@H]1NC(=O)[C@@H]2CCCN2C(=O)[C@H]2CCCN2C(=O)[C@H](CO)NC(=O)[C@H](C)NC(=O)[C@H](C(C)(C)C)NC(=O)[C@@H](NC(=O)[C@H](Cc2c[nH]c3ccccc23)NC(C)=O)CSSC[C@@H](C(=O)N[C@@H](CCN)C(=O)N[C@H](C(=O)N[C@@H](CCN)C(=O)NCC(=O)N[C@H]2CCNC(=O)[C@H]([C@@H](C)O)NC(=O)[C@H](CCN)NC(=O)[C@H](CCN)NC(=O)[C@H](CC(C)C)NC(=O)[C@@H](Cc3ccccc3)NC(=O)[C@H](CCN)NC2=O)[C@@H](C)O)NC(=O)[C@H](Cc2ccc(O)cc2)NC(=O)[C@H](CO)NC1=O [Ex. 33] (Ac-WC[Tle]AS[dP]P[Nle]SYC[Dab]T[Dab]G[Dab][Dab][dF]L[Dab][Dab]T; disulfide 2-11; lactam 16-C) | 0.75 µg/mL | 0.5 µg/mL | 1 µg/mL | 0.25 µg/mL | 0.125 µg/mL | 0.5 µg/mL | 0.25 µg/mL | 1% |
| CCCC[C@@H]1NC(=O)[C@@H]2CCCN2C(=O)[C@H]2CCCN2C(=O)[C@H](CO)NC(=O)[C@H](C)NC(=O)[C@H](C(C)(C)C)NC(=O)[C@@H](NC(=O)[C@H](Cc2c[nH]c3ccccc23)NC(C)=O)CSSC[C@@H](C(=O)N[C@@H](CCN)C(=O)N[C@H](C(=O)N[C@@H](CCN)C(=O)N[C@@H](CCN)C(=O)N[C@H]2CCNC(=O)[C@H]([C@@H](C)O)NC(=O)[C@H](CCN)NC(=O)[C@H](CCN)NC(=O)[C@H](CC(C)C)NC(=O)[C@@H](Cc3ccccc3)NC(=O)[C@H](CCN)NC2=O)[C@@H](C)O)NC(=O)[C@H](Cc2ccc(O)cc2)NC(=O)[C@H](CO)NC1=O [Ex. 34] (Ac-WC[Tle]AS[dP]P[Nle]SYC[Dab]T[Dab][Dab][Dab][Dab][dF]L[Dab][Dab]T; disulfide 2-11; lactam 16-C) | 1 µg/mL | 0.125 µg/mL | 0.25 µg/mL | 0.125 µg/mL | 0.25 µg/mL | 0.125 µg/mL | 0.0625 µg/mL | 1% |
| CCCC[C@@H]1NC(=O)[C@@H]2CCCN2C(=O)[C@H]2CCCN2C(=O)[C@H](CO)NC(=O)[C@H](C)NC(=O)[C@H](C(C)(C)C)NC(=O)[C@@H](NC(=O)[C@H](Cc2c[nH]c3ccccc23)NC(=O)[C@H](CCN)NC(C)=O)CSSC[C@@H](C(=O)N[C@@H](CCCN)C(=O)N[C@@H](CCN)C(=O)N[C@H]2CCNC(=O)[C@H]([C@@H](C)O)NC(=O)[C@H](CCN)NC(=O)[C@H](CCN)NC(=O)[C@H](CC(C)C)NC(=O)[C@@H](Cc3ccccc3)NC(=O)[C@H](CCN)NC2=O)NC(=O)[C@H](Cc2ccc(O)cc2)NC(=O)[C@H](CO)NC1=O [Ex. 35] (Ac-[Dab]WC[Tle]AS[dP]P[Nle]SYC[Orn][Dab][Dab][Dab][dF]L[Dab][Dab]T; disulfide 3-12; lactam 15-C) | 2 µg/mL | 1 µg/mL | 0.5 µg/mL | 1 µg/mL | 0.5 µg/mL | 0.25 µg/mL | 0.25 µg/mL | 1% |
| CCCC[C@@H]1NC(=O)[C@@H]2CCCN2C(=O)[C@H]2CCCN2C(=O)[C@H](CO)NC(=O)[C@H](C)NC(=O)[C@H](C(C)(C)C)NC(=O)[C@@H](NC(=O)[C@H](Cc2c[nH]c3ccccc23)NC(=O)[C@H](CCN)NC(C)=O)CSSC[C@@H](C(=O)N[C@@H](CCCN)C(=O)N[C@H](C(=O)N[C@@H](CCN)C(=O)N[C@H]2CCNC(=O)[C@H]([C@@H](C)O)NC(=O)[C@H](CCN)NC(=O)[C@H](CCN)NC(=O)[C@H](CC(C)C)NC(=O)[C@@H](Cc3ccccc3)NC(=O)[C@H](CCN)NC2=O)[C@@H](C)O)NC(=O)[C@H](Cc2ccc(O)cc2)NC(=O)[C@H](CO)NC1=O [Ex. 36] (Ac-[Dab]WC[Tle]AS[dP]P[Nle]SYC[Orn]T[Dab][Dab][Dab][dF]L[Dab][Dab]T; disulfide 3-12; lactam 16-C) | 0.5 µg/mL | 0.5 µg/mL | 0.25 µg/mL | 0.5 µg/mL | 0.25 µg/mL | 0.25 µg/mL | 0.25 µg/mL | <1% |
| CCCC[C@@H]1NC(=O)[C@@H]2CCCN2C(=O)[C@H]2CCCN2C(=O)[C@H](CO)NC(=O)[C@H](C)NC(=O)[C@H](C(C)(C)C)NC(=O)[C@@H](NC(=O)[C@H](Cc2c[nH]c3ccccc23)NC(=O)[C@@H](N)CN)CSSC[C@@H](C(=O)N[C@@H](CCN)C(=O)N[C@H](C(=O)N[C@@H](CCN)C(=O)N[C@H]2CCNC(=O)[C@H]([C@@H](C)O)NC(=O)[C@H](CCN)NC(=O)[C@H](CCN)NC(=O)[C@H](CC(C)C)NC(=O)[C@@H](Cc3ccccc3)NC(=O)[C@H](CCN)NC2=O)[C@@H](C)O)NC(=O)[C@H](Cc2ccc(O)cc2)NC(=O)[C@H](CO)NC1=O [Ex. 37] (H-[Dap]WC[Tle]AS[dP]P[Nle]SYC[Dab]T[Dab][Dab][Dab][dF]L[Dab][Dab]T; disulfide 3-12; lactam 16-C) | 2 µg/mL | 0.5 µg/mL | 0.5 µg/mL | 0.5 µg/mL | 0.125 µg/mL | 0.125 µg/mL | 0.125 µg/mL | 2% |
